According to patent US20110086834A1, “ALKYNYL ALCOHOLS AS KINASE INHIBITORS” (AMGEN INC., priority 2008, published 2011):

Target: T1, NIK (Homo sapiens, UniProt Q99558)
T1 construct: Both assays utilize a truncated form of NIK containing only the catalytic domain; made in house; host or cells: baculovirus expression system (insect cells implied)
Assay: homogenous time resolved fluorescence (HTRF) assay for NIK Ki measurement
Format: biochemical
Conditions: truncated NIK (catalytic domain only), autophosphorylation; 10 nM enzyme; 20, 100, 200 or 500 μM ATP; room temperature, 2 hours; read-out: Ki activity in the homogenous time resolved fluorescence (HTRF) assay for NIK
Description: Two formats of biochemical assays are implemented: (1) chemiluminescent (CL) assay for NIK IC50 determination; (2) homogenous time resolved fluorescence (HTRF) assay for NIK Ki measurement. […] The NIK proteins are purified with baculovirus expression system and further biotinylated with N-hydroxysuccinamide biotin ester (Sigma). […] The reaction mixtures are then immobilized on a Streptavidin-coated plate (Pierce). […] For the HTRF assay, 10 nM of enzyme are incubated with compounds in the presence of 20, 100, 200, or 500 μM of ATP in a buffer with 20 mM of Hepes pH7.5, 20 mM of MgCl2, 0.2% of Tween 20 and 1 mM of DTT at room temperature for 2 hours.

T1 sequence (Q99558 400-655 limits assumed): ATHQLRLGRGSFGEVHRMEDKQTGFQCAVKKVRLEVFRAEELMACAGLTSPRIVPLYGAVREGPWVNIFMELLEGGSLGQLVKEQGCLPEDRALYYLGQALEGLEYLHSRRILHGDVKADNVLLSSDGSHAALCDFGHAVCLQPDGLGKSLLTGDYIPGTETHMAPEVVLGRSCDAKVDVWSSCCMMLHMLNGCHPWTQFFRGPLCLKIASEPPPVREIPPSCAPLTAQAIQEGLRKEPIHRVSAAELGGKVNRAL

Row | SMILES | Ki [nM]
1 | COCCN(C)C1CCn2c1c(-c1ccncn1)c1cc(C#CC(C)(O)c3nccs3)ccc12 (single isomer, unassigned) [Example 87, 4-((R*)-1-((2-methoxyethyl)(methyl)amino)-9-(pyrimidin-4-yl)-2,3-dihydro-1H-pyrrolo[1,2-a]indol-7-yl)-2-(thiazol-2-yl)but-3-yn-2-ol] | < 1000
2 | COCCOc1ccc(C#C[C@](C)(O)c2cc(C)on2)cc1Nc1nc(N)ncc1Cl (single isomer, unassigned) [Example 178] | 1000 to 30000
3 | COCCOc1ccc(C#C[C@@](C)(O)c2cc(C)on2)cc1Nc1nc(N)ncc1Cl (single isomer, unassigned) [Example 179] | < 1000
4 | CN1CC2(C1)CN(c1nc(N)ncc1Cl)c1cc(C#CC(C)(O)c3nccs3)ccc12 (single isomer, unassigned) [Example 182a, (2S*)-4-(1′-(2-Amino-5-chloro-4-pyrimidinyl)-1-methyl-1′,2′-dihydrospiro[azetidine-3,3′-indol]-6′-yl)-2-(1,3-thiazol-2-yl)-3-Butyn-2-ol] | 1000 to 30000
5 | CN1CC2(C1)CN(c1nc(N)ncc1Cl)c1cc(C#C[C@@](C)(O)c3nccs3)ccc12 (single isomer, unassigned) [Example 182b, (2R*)-4-(1′-(2-Amino-5-chloro-4-pyrimidinyl)-1-methyl-1′,2′-dihydrospiro[azetidine-3,3′-indol]-6′-yl)-2-(1,3-thiazol-2-yl)-3-butyn-2-ol] | < 1000
6 | CN1CCC2(C1)CN(c1nc(N)ncc1Cl)c1cc(C#CC3(O)CCCC3)ccc12 (single isomer, unassigned) [Example 192, 1-(((3S*)-1-(2-Amino-5-chloro-4-pyrimidinyl)-1′-methyl-1,2-dihydrospiro[indole-3,3′-pyrrolidin]-6-yl)ethynyl)cyclopentanol] | < 1000
7 | CN1CCC2(C1)CN(c1nc(N)ncc1Cl)c1cc(C#C[C@](C)(O)c3nccs3)ccc12 (single isomer, unassigned) [Example 194, (2S)-4-((3R*)-1-(2-Amino-5-chloro-4-pyrimidinyl)-1′-methyl-1,2-dihydrospiro[indole-3,3′-pyrrolidin]-6-yl)-2-(1,3-thiazol-2-yl)-3-butyn-2-ol] | 1000 to 30000
8 | C[C@](O)(C#Cc1ccc2c(c1)N(c1nc(N)ncc1Cl)CC21CCOC1)c1nccs1 (single isomer, unassigned) [Example 201, (2S)-4-((3S*)-1′-(2-Amino-5-chloro-4-pyrimidinyl)-1′,2′,4,5-tetrahydrospiro[furan-3,3′-indol]-6′-yl)-2-(1,3-thiazol-2-yl)-3-butyn-2-ol] | 1000 to 30000
9 | Cc1cc(C(C)(O)C#Cc2ccc3c(c2)N(c2nc(N)ncc2Cl)C[C@@]32CCOC2)no1 (single isomer, unassigned) [Example 203, 4-((3R*)-1′-(2-Amino-5-chloro-4-pyrimidinyl)-1′,2′,4,5-tetrahydrospiro[furan-3,3′-indol]-6′-yl)-2-(5-methyl-3-isoxazolyl)-3-butyn-2-ol] | < 1000
10 | Cc1cc(C(C)(O)C#Cc2ccc3c(c2)N(c2nc(N)ncc2Cl)CC32CCOC2)no1 (single isomer, unassigned) [Example 204, 4-((3S*)-1′-(2-Amino-5-chloro-4-pyrimidinyl)-1′,2′,4,5-tetrahydrospiro[furan-3,3′-indol]-6′-yl)-2-(5-methyl-3-isoxazolyl)-3-butyn-2-ol] | < 1000
11 | C[C@@](O)(C#Cc1ccc2c(c1)N(c1nc(N)ncc1Cl)CC21CCOCC1)c1nccs1 (single isomer, unassigned) [Example 209] | < 1000
12 | C[C@](O)(C#Cc1ccc2c(c1)N(c1nc(N)ncc1Cl)CC21CCOCC1)c1nccs1 (single isomer, unassigned) [Example 209a] | 1000 to 30000
13 | Cc1cc([C@](C)(O)C#Cc2ccc3c(c2)N(c2nc(N)ncc2Cl)CC32CCOCC2)no1 (single isomer, unassigned) [Example 211] | < 1000
14 | Cc1cc([C@@](C)(O)C#Cc2ccc3c(c2)N(c2nc(N)ncc2Cl)CC32CCOCC2)no1 (single isomer, unassigned) [Example 211a] | 1000 to 30000
15 | C[C@](O)(C#Cc1ccc2c(c1)N(c1nc(N)ncc1Cl)C[C@@]21CCOC1)c1nccs1 (stereo in doubt) [Example 199, (2S)-4-((3R*)-1′-(2-Amino-5-chloro-4-pyrimidinyl)-1′,2′,4,5-tetrahydrospiro[furan-3,3′-indol]-6′-yl)-2-(1,3-thiazol-2-yl)-3-butyn-2-ol] | 1000 to 30000
16 | C[C@@](O)(C#Cc1ccc2c(c1)N(c1nc(N)ncc1Cl)C[C@]21CCOC1)c1nccs1 (stereo in doubt) [Example 202, (2R)-4-((3S*)-1′-(2-Amino-5-chloro-4-pyrimidinyl)-1′,2′,4,5-tetrahydrospiro[furan-3,3′-indol]-6′-yl)-2-(1,3-thiazol-2-yl)-3-butyn-2-ol] | < 1000
17 | Cc1noc(C(C)(O)C#Cc2ccc3c(c2)N(c2nc(N)ncc2Cl)CC3)n1 (stereo not shown) [Example 1, 4-(1-(2-amino-5-chloropyrimidin-4-yl)indolin-6-yl)-2-(3-methyl-1,2,4-oxadiazol-5-yl)but-3-yn-2-ol] | < 1000

Row | SMILES | Ki [nM]
18 | Cc1nc(C(C)(O)C#Cc2ccc3c(c2)N(c2nc(N)ncc2Cl)CC3)no1 (stereo not shown) [Example 2, 4-(1-(2-amino-5-chloropyrimidin-4-yl)indolin-6-yl)-2-(5-methyl-1,2,4-oxadiazol-3-yl)but-3-yn-2-ol] | < 1000
19 | Cc1cc(C(C)(O)C#Cc2ccc3c(c2)N(c2nc(N)ncc2Cl)CC3(C)C)no1 (stereo not shown) [Example 3, 4-(1-(2-amino-5-chloropyrimidin-4-yl)-3,3-dimethylindolin-6-yl)-2-(5-methylisoxazol-3-yl)but-3-yn-2-ol] | < 1000
20 | CC(O)(C#Cc1ccc2c(c1)N(c1nc(N)ncc1Cl)CC2)c1cnccn1 (stereo not shown) [Example 4, 4-(1-(2-amino-5-chloropyrimidin-4-yl)indolin-6-yl)-2-(pyrazin-2-yl)but-3-yn-2-ol] | < 1000
21 | Cc1ccnc(C(C)(O)C#Cc2ccc3c(c2)N(c2nc(N)ncc2Cl)CC3)c1 (stereo not shown) [Example 5, 4-(1-(2-amino-5-chloropyrimidin-4-yl)indolin-6-yl)-2-(4-methylpyridin-2-yl)but-3-yn-2-ol] | < 1000
22 | Cc1nonc1C(C)(O)C#Cc1ccc2c(c1)N(c1nc(N)ncc1Cl)CC2 (stereo not shown) [Example 6, 4-(1-(2-amino-5-chloropyrimidin-4-yl)indolin-6-yl)-2-(4-methyl-1,2,5-oxadiazol-3-yl)but-3-yn-2-ol] | 1000 to 30000
23 | CC(O)(C#Cc1ccc2c(c1)N(c1nc(N)ncc1Cl)CC2)c1ncc(CO)s1 (stereo not shown) [Example 8, 4-(1-(2-amino-5-chloropyrimidin-4-yl)indolin-6-yl)-2-(5-(hydroxymethyl)thiazol-2-yl)but-3-yn-2-ol] | < 1000
24 | CC(O)(C#Cc1ccc2c(c1)N(c1nc(N)ncc1Cl)CC2)c1nc(C#N)cs1 (stereo not shown) [Example 9, 2-(4-(1-(2-amino-5-chloropyrimidin-4-yl)indolin-6-yl)-2-hydroxybut-3-yn-2-yl)thiazole-4-carbonitrile] | 1000 to 30000
25 | CC(O)(C#Cc1ccc2c(c1)N(c1nc(N)ncc1Cl)CC2)c1cc(N2CCCCC2)ccn1 (stereo not shown) [Example 10, 4-(1-(2-amino-5-chloropyrimidin-4-yl)indolin-6-yl)-2-(4-(piperidin-1-yl)pyridin-2-yl)but-3-yn-2-ol] | 1000 to 30000
26 | CC(O)(C#Cc1ccc2c(c1)N(c1nc(N)ncc1Cl)CC2)c1cc(F)ccn1 (stereo not shown) [Example 11, 4-(1-(2-amino-5-chloropyrimidin-4-yl)indolin-6-yl)-2-(4-fluoropyridin-2-yl)but-3-yn-2-ol] | 1000 to 30000
27 | CC(O)(C#Cc1ccc2c(c1)N(c1ncns1)CC2(C)C)c1nccs1 (stereo not shown) [Example 12, 4-(3,3-dimethyl-1-(1,2,4-thiadiazol-5-yl)indolin-6-yl)-2-(thiazol-2-yl)but-3-yn-2-ol] | < 1000
28 | CC(O)(C#Cc1ccc2c(c1)N(c1ncns1)CC2(C)C)c1cnccn1 (stereo not shown) [Example 13, 4-(3,3-dimethyl-1-(1,2,4-thiadiazol-5-yl)indolin-6-yl)-2-(pyrazin-2-yl)but-3-yn-2-ol] | < 1000
29 | Cc1cc([C@](C)(O)C#Cc2ccc3c(c2)N(c2ncns2)CC3(C)C)no1 [Example 14, (R)-4-(3,3-dimethyl-1-(1,2,4-thiadiazol-5-yl)indolin-6-yl)-2-(5-methylisoxazol-3-yl)but-3-yn-2-ol] | < 1000
30 | Cc1cc([C@@](C)(O)C#Cc2ccc3c(c2)N(c2ncns2)CC3(C)C)no1 [Example 15, (S)-4-(3,3-dimethyl-1-(1,2,4-thiadiazol-5-yl)indolin-6-yl)-2-(5-methylisoxazol-3-yl)but-3-yn-2-ol] | < 1000
31 | Nc1ncc(Cl)c(N2CCc3ccc(C#CC4(O)CCCC4)cc32)n1 [Example 16, 1-(2-(1-(2-amino-5-chloropyrimidin-4-yl)indolin-6-yl)ethynyl)cyclopentanol] | < 1000
32 | COCCOc1ccc(Nc2ncnc(N3CC(C)(C)c4ccc(C#CC5(O)CCCC5)cc43)n2)cc1 [Example 17, 1-(2-(1-(4-(4-(2-methoxyethoxy)phenylamino)-1,3,5-triazin-2-yl)-3,3-dimethylindolin-6-yl)ethynyl)cyclopentanol] | 1000 to 30000
33 | COc1cc(C#CC2(O)CCCC2)cc2c1CCN2c1nc(N)ncc1F [Example 18, 1-(2-(1-(2-amino-5-fluoropyrimidin-4-yl)-4-methoxyindolin-6-yl)ethynyl)cyclopentanol] | < 1000
34 | CC(=O)Nc1cc(C#CC2(O)CCCC2)cc2c1CCN2c1nc(N)ncc1Cl [Example 19, N-(1-(2-amino-5-chloropyrimidin-4-yl)-6-(2-(1-hydroxycyclopentyl)ethynyl)indolin-4-yl)acetamide] | < 1000
